Test results taken from publication PMC6273932, “Xanthium strumarium as an Inhibitor of α-Glucosidase, Protein Tyrosine Phosphatase 1β, Protein Glycation and ABTS^+ for Diabetic and Its Complication” (Molecules, 2016).
Values after ≈ are worked out from the molar mass of the structure shown.

How the values were obtained:
α-glucosidase = biological target: α-glucosidase; design: method as in ref 15 (Chen et al.); settings: compounds isolated from aerial parts of Gynura divaricate; ref 15 (Chen et al.); read-out: inhibitory effects against α-glucosidase; cited from earlier work
[1] = system: recombinant aldose reductase; settings: compounds from X. strumarium; cited from earlier work
[2] = system: rat lens aldose reductase; settings: compounds from X. strumarium; cited from earlier work
[3] = biological target: T1, protein tyrosine phosphatase 1β (PTP1β) (Homo sapiens, UniProt P18031); assay: PTP1β inhibitory activity assay (colorimetric kit, IR5 phosphopeptide substrate); assay type: biochemical; settings: for inhibition at 10 µg/mL: 10 μg/mL; for inhibition at 10 µg/mL / IC50: - is no activity; for IC50: isolated compounds
T1 sequence (P18031 1-322 limits assumed): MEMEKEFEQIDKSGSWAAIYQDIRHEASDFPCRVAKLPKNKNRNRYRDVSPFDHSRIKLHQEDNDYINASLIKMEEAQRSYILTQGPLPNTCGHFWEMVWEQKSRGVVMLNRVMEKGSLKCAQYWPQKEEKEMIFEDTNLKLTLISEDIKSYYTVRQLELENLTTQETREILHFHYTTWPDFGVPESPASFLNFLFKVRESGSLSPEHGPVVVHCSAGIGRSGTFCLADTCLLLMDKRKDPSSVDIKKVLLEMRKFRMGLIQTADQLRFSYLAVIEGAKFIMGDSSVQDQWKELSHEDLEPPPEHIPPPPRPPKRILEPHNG
Protocol: PTP1β tyrosine phosphatase drug discovery kit is a colorimetric, non-radioactive assay designed to measure the phosphatase activity of purified PTP1β. […] Following incubation at 37 °C for 30 min, the reaction was terminated with the BIOMOL RED^TM reagent. The amount of […] produced was estimated by measuring the absorbance at 620 nm. The non-enzymatic hydrolysis of the IR5 substrate was corrected by measuring the increase in absorbance at 620 nm obtained in the absence of PTP1β enzyme.

[4] = system: advanced glycation end products (AGEs); assay: AGEs inhibitory activity, bovine serum albumin-methylglyoxal assay (fluorescence); assay type: biochemical; settings: for IC50 AGEs: - is no activity
Protocol: The modified procedure of Lee et al. was followed. Bovine serum albumin (10 mg/mL) was incubated with 5 mM methylglyoxal in sodium phosphate buffer (100 mM; pH 7.4). […] All of the reagents and samples were […] by filtration through 0.2 μm membrane filters and the mixture was incubated at 37 °C for 7 days. The fluorescence intensity was measured at an excitation wavelength of 330 nm and an emission wavelength of 410 nm with a LS50B fluorescence spectrometer Perkin-Elmer Ltd., (Buckinghamshire, FLS, UK). Aminoguanidine was also tested as a known inhibitor.

[5] = system: α-glucosidase from Saccharomyces sp.; assay: α-glucosidase inhibitory activity assay (pNPG substrate, absorbance 405 nm); assay type: biochemical
Source text: ^1H- and ^13C-NMR spectra and correlation NMR spectra such as COSY, HMBC, HMQC, and DEPT were obtained from a Bruker Avance DPX 400 (or 600) spectrometer (Berlin, Germany). These were obtained at operating frequencies of 400 MHz (^1H) and 100 (or 150) MHz (^13C) with CD3OD, (CD3)2SO, (CD3)2CO, or D2O and TMS was used as an internal standard; chemical shifts were reported in δ values. The α-glucosidase from Saccharomyces sp. (SSG) was purchased from Wako Pure Chemical Industries Ltd (Tokyo, Japan). […] All other chemicals and reagents used were of analytical grade.
The α-glucosidase inhibitory activity of the extracts and fractions was determined using a modified procedure reported method with a slight modification. The α-glucosidase activity was measured using the substrate p-nitrophenyl-α-D-glucopyranoside (pNPG), which is hydrolyzed by α-glucosidase to release the product p-nitrophenol, a colorant that can be monitored at 405 nm. The initial concentration of the enzyme solution was 0.62 unit/mL in 0.1 M phosphate buffer (pH 6.9) and the initial concentration of the substrate solution was 2 mM in the same phosphate buffer. The enzyme solution was mixed with water and the samples or controls in a clear 96-well microplate (flat bottom) and the reaction was initiated by addition of the substrate to the solution. The plates were incubated at 37 °C for 5 min and the reaction was terminated by the addition of 0.1 M Na2CO3. […] Background absorbance was determined using a non-enzyme control microplate containing the buffer and was subtracted from the absorbance of the samples and controls.

[6] = ABTS^+ radical scavenging activity assay; settings: for IC50 / IC50 ABTS^+ radical scavenging: isolated compounds
Protocol: The method described by Li et al. was used with slight modifications. ABTS^+ diammonium salt (2 mM) and potassium persulfate (3.5 mM) were mixed, diluted in distilled water and kept in the dark at room temperature for 24 h before use. After addition of ABTS^+ solution to 10 µL of antioxidant, measurements were recorded at 10 min post reaction. The percentage inhibition of absorbance at 750 nm was calculated and plotted as a function of concentration of antioxidants. Trolox was used as positive control.

PTP1β = system: PTP1β; design: method as in ref 16 (Hwang et al.); settings: compounds isolated from Zea mays L.; ref 16 (Hwang et al.); cited from earlier work
[7] = isolated compounds, - is no activity
[8] = Table 2, crude extract and fractions, - is no activity

O=C(/C=C/c1ccc(O)c(O)c1)O[C@H]1[C@H](O)C[C@](O)(C(=O)O)C[C@H]1OC(=O)/C=C/c1ccc(O)c(O)c1 [3,4-di-O-CQA]
IC50 (α-glucosidase): 187 µM

O=C(/C=C/c1ccc(O)c(O)c1)O[C@@H]1C[C@](O)(C(=O)O)C[C@@H](OC(=O)/C=C/c2ccc(O)c(O)c2)[C@H]1O [compound 10, 3,5-di-O-caffeoylquinic acid]
recombinant aldose reductase inhibitory activity [1]: strong | rat lens aldose reductase inhibitory activity [2]: strong | inhibition at 10 µg/mL [3]: 18.4% | IC50 [3]: > 19.4 µM | Inhibition (%) AGEs ([4]; 100 μg/mL): 42.91% | Inhibition (%) α-glucosidase ([5]; 5 μg/mL): 9.34% | Inhibition (%) α-glucosidase ([5]; 25 μg/mL): 33.72% | Inhibition (%) α-glucosidase ([5]; 50 μg/mL, - is no activity): 52.85% | Inhibition (%) α-glucosidase ([5]; 100 μg/mL): 99.44% | IC50 ([5]; isolated compounds): 88.1 µM | IC50 α-glucosidase [5, 7]: 45.48 ± 4.52 µg/mL (≈ 88.1 µM)

Cc1c(C)c2c(c(C)c1O)CCC(C)(C(=O)O)O2 (stereo not drawn) [Trolox, reference compound]
Inhibition (%) ABTS^+ ([6]; 1.66 μg/mL): 17.27% | Inhibition (%) ABTS^+ ([6]; 8.33 μg/mL): 54.14% | Inhibition (%) ABTS^+ ([6]; 16.66 μg/mL): 95.06% | IC50 ABTS^+ [6, 8]: 7.51 ± 0.58 µg/mL (≈ 30 µM) | IC50 [6]: 29.7 µM | IC50 ABTS^+ radical scavenging ([6]; - is no activity): 7.43 ± 0.71 µg/mL (≈ 29.7 µM)

Cc1ccc(C(=O)Nc2ccc(S(=O)(=O)O)c3cc(S(=O)(=O)O)cc(S(=O)(=O)O)c23)cc1NC(=O)c1cccc(NC(=O)Nc2cccc(C(=O)Nc3cc(C(=O)Nc4ccc(S(=O)(=O)O)c5cc(S(=O)(=O)O)cc(S(=O)(=O)O)c45)ccc3C)c2)c1 [Suramin, reference compound]
inhibition at 1.43 µg/mL ([3]; 1.43 μg/mL): 10.4% | inhibition at 3.57 µg/mL ([3]; 3.57 μg/mL): 26.4% | inhibition at 7.15 µg/mL ([3]; 7.15 μg/mL): 52.2% | inhibition at 14.29 µg/mL ([3]; read-out: Inhibition (%) PTP1β): 83.6%

O=c1c(O[C@@H]2O[C@H](CO)[C@@H](O)[C@H](O)[C@H]2O)c(-c2ccc(O)c(O)c2)oc2cc(O)cc(O)c12 [hirsutrin]
PTP1β inhibitory activity IC50 (PTP1β): no activity

C[C@H]1O[C@H](O[C@H]2[C@H](O)[C@@H](O)[C@@H](O[C@H]3[C@H](O)[C@@H](O)C(O)O[C@@H]3CO)O[C@@H]2CO)[C@H](O)[C@@H](O)[C@@H]1N[C@H]1C=C(CO)[C@@H](O)[C@H](O)[C@H]1O (stereo partly drawn) [Acarbose, reference compound]
Inhibition (%) α-glucosidase ([5]; 50 μg/mL, - is no activity): 16.98% | Inhibition (%) α-glucosidase ([5]; 250 μg/mL): 41.06% | Inhibition (%) α-glucosidase ([5]; 500 μg/mL): 60.29% | Inhibition (%) α-glucosidase ([5]; 1000 μg/mL): 106.14% | IC50 α-glucosidase [5, 8]: 377.19 ± 38.17 µg/mL (≈ 584 µM) | IC50 ([5]; isolated compounds): 585 µM | IC50 α-glucosidase [5, 7]: 377.19 ± 37.8 µg/mL (≈ 584 µM)

O=C(/C=C/c1ccc(O)c(O)c1)O[C@@H]1C[C@@](OC(=O)/C=C/c2ccc(O)c(O)c2)(C(=O)O)C[C@@H](O)[C@@H]1O [compound 12, 1,3-di-O-caffeoylquinic acid]
recombinant aldose reductase inhibitory activity [1]: strong | rat lens aldose reductase inhibitory activity [2]: strong | inhibition at 10 µg/mL [3]: 22.3% | IC50 [3]: > 19.4 µM | Inhibition (%) AGEs ([4]; 100 μg/mL): 40.19% | Inhibition (%) α-glucosidase ([5]; 50 μg/mL, - is no activity): 38.37%

COC(=O)[C@]1(O)C[C@@H](O)[C@@H](OC(=O)/C=C/c2ccc(O)c(O)c2)[C@H](OC(=O)/C=C/c2ccc(O)c(O)c2)C1 [methyl 3,4-di-O-CQA]
IC50 (α-glucosidase): 12.2 µM

O=C(O)c1ccc(O)c(O)c1 [compound 1, protocatechuic acid]
inhibition at 10 µg/mL [3]: 28.6% | IC50 [3]: > 64.9 µM | Inhibition (%) ABTS^+ ([6]; 1.66 μg/mL): 25.17% | Inhibition (%) ABTS^+ ([6]; 8.33 μg/mL): 68.72% | Inhibition (%) ABTS^+ ([6]; 16.66 μg/mL): 97.22% | IC50 [6]: 32.9 µM | IC50 ABTS^+ radical scavenging ([6]; - is no activity): 4.94 ± 0.38 µg/mL (≈ 32.1 µM) | Inhibition (%) AGEs ([4]; 100 μg/mL): 9.49% | Inhibition (%) α-glucosidase ([5]; 50 μg/mL, - is no activity): 17.45%

Nc1ccn([C@@H]2O[C@H](CO)[C@@H](O)[C@H]2O)c(=O)n1 [compound 3, cytidine]
inhibition at 10 µg/mL [3]: < 0% | IC50 [3]: > 41.1 µM | Inhibition (%) AGEs ([4]; 100 μg/mL): 33.16% | Inhibition (%) α-glucosidase ([5]; 50 μg/mL, - is no activity): 4.70%

N=C(N)NN [Aminoguanidine, reference compound]
Inhibition (%) AGEs ([4]; 50 μg/mL): 27.97% | Inhibition (%) AGEs ([4]; 100 μg/mL): 37.84% | Inhibition (%) AGEs ([4]; 200 μg/mL): 61.01% | Inhibition (%) AGEs ([4]; 400 μg/mL): 98.17% | IC50 AGEs ([4]; Table 2, crude extract and fractions): 166.22 ± 16.29 µg/mL (≈ 2240 µM) | IC50 ([4]; isolated compounds): 1410 µM | IC50 AGEs ([4]; isolated compounds): 155.88 ± 15.45 µg/mL (≈ 2100 µM)
